Experimental data reported in PMC10805714, “Functionally-selective inhibition of threshold sodium currents and excitability in dorsal root ganglion neurons by cannabinol” (Communications Biology, 2024).

Key:
Nav1.7 = target: T1, Nav1.7 (Homo sapiens, UniProt Q15858); assay: automated whole-cell patch-clamp (Qube-384), IC50 at -90 mV holding-potential; assay type: cell-based
T1 construct: gene SCN9A; human Nav1.7 stably expressed in HEK293 cells; with SCN1B (human, co-transfected)

Nav1.7-P610T = target: T2, Nav1.7-P610T (Homo sapiens, UniProt Q15858, P610T); assay: automated patch-clamp, steady-state inactivation shift with […] s pre-pulse; assay type: cell-based
T2 construct: gene SCN9A; P610T plasmid transfected in HEK293 cells
T2 sequence (Q15858 whole entry P610T): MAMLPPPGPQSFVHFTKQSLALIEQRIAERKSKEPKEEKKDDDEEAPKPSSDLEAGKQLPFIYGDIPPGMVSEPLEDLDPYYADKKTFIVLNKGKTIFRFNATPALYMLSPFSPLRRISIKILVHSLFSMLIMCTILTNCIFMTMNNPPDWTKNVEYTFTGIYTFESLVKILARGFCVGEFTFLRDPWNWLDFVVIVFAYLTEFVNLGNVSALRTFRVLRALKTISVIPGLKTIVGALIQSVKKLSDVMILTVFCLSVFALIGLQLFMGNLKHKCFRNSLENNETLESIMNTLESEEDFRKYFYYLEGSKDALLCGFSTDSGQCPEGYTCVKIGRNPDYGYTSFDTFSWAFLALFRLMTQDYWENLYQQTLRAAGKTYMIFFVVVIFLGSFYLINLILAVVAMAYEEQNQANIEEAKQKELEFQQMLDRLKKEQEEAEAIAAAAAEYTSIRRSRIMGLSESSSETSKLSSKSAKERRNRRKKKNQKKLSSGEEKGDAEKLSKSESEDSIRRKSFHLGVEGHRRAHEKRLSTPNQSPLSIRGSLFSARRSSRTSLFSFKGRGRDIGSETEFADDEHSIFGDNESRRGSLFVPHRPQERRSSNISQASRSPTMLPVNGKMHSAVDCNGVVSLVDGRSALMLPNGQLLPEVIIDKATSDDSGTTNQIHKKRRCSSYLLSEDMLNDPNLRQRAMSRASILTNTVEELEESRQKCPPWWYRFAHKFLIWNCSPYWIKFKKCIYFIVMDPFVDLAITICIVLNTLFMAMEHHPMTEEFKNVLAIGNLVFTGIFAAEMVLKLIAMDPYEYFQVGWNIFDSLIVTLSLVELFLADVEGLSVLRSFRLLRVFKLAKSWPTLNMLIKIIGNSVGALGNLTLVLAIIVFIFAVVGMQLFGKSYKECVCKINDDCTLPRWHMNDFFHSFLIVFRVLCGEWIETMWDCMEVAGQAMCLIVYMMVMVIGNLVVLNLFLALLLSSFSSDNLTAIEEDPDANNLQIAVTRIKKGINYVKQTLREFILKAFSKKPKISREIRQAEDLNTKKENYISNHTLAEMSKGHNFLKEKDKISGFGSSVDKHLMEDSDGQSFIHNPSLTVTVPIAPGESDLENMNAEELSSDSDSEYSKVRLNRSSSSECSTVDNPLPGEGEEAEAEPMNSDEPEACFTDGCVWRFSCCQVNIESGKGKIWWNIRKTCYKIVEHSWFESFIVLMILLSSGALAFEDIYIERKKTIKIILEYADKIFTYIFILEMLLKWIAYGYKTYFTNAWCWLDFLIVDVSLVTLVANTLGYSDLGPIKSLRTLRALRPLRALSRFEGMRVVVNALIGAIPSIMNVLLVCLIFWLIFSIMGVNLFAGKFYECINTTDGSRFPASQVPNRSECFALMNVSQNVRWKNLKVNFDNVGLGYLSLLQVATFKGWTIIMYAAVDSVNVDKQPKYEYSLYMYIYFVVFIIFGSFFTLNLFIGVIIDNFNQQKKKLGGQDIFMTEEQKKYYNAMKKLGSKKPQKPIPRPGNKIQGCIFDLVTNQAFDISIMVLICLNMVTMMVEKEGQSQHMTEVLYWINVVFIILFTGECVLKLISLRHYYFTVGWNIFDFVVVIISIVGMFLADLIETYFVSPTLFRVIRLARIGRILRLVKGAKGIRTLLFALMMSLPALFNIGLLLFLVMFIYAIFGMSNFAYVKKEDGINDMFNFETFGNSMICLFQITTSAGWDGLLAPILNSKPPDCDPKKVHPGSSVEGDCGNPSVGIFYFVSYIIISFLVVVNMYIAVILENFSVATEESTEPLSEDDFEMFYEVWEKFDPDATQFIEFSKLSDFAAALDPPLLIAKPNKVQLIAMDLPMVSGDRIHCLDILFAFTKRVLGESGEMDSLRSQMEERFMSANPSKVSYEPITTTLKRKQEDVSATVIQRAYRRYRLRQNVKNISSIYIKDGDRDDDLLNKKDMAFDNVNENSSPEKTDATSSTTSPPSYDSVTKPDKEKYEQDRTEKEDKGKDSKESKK

T1 sequence (Q15858 whole entry): as the sequence (Q15858 whole entry P610T) above, with T610P counted along it
T1 sequence (Q07699 19-218 partner): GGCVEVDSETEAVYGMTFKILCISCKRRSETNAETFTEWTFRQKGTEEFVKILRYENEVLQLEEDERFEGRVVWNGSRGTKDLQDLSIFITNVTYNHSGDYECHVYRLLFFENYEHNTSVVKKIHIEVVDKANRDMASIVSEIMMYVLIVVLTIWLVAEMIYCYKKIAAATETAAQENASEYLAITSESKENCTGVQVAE

Q: For CCCCCc1cc(O)c2c(c1)OC(C)(C)c1ccc(C)cc1-2 [CBN, Cannabinol], which IC50 (Nav1.7) is on record?
A: 10.7 µM

Q: And the “automated patch-clamp, steady-state inactivation shift with 5 s pre-pulse” value (Nav1.7-P610T)?
A: CBN hyperpolarized the SSI curves in both WT and P610T (Fig. S1)
